Results: patent US20230127046A1, “G9a INHIBITOR” (RIKEN, priority 2019, published 2023)
Read-outs that look alike come from different tables or passages of the source.

Biological target: T1, recombinant human G9a protein (Homo sapiens, UniProt Q96KQ7)
T1 construct: purchased BPS Bioscience Inc. #51001
T1 sequence (Q96KQ7 785-1210 limits assumed): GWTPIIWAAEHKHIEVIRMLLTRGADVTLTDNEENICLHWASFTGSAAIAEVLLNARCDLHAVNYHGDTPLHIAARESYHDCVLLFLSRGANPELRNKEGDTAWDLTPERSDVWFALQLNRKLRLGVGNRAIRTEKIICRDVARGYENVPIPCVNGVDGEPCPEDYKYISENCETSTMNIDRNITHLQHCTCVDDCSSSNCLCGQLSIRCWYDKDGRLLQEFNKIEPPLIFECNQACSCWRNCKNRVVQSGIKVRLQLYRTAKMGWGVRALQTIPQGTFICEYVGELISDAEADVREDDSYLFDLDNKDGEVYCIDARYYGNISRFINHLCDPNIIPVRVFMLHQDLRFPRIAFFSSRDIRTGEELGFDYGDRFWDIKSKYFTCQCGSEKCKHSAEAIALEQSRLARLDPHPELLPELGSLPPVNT
Assay: G9a inhibitory activity test (ALPHA)
Type: biochemical
Outline: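 Human G9a (0.05 to 0.1 nM) in Tris pH 9.0 buffer preincubated with compound 10 min, then biotinylated histone H3 (1-21) peptide and SAM mixed 1:1 from 500 nM and 150 μM solutions, 1 h at room temperature. H3K9me2 detected by AlphaLISA acceptor/streptavidin donor beads; IC50 from percent inhibition relative to no-compound and no-enzyme controls.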

[1] = read-out: Inhibitory activity (G9a IC50)
[2] = biotinylated histone H3 peptide (1-21), SAM, read-out: Inhibitory activity (G9a IC50 value)

Structure (SMILES) | IC50 [1] [nM] | IC50 [2] [nM]
Cc1c(C(=O)NC(C(=O)Nc2ccc(OC3CCN(C)CC3)nc2)c2ccccc2)[nH]c2c1C(=O)CC(C)(C)C2 (stereo not drawn) [Example 1-86] |  | ≥ 200
CCCCC(NC(=O)c1[nH]c2c(c1C)C(=O)CC(C)(C)C2)C(=O)Nc1cccc2c1CCC2 (stereo not drawn) [Example 1-34] |  | ≥ 200
CCCCC(NC(=O)c1[nH]c2c(c1C)C(=O)CC(C)(C)C2)C(=O)Nc1cc(C)ccc1OC (stereo not drawn) [Example 1-38] |  | ≥ 200
CCCCC(NC(=O)c1[nH]c2c(c1C)C(=O)CC(C)(C)C2)C(=O)Nc1cccc(Cl)c1C (stereo not drawn) [Example 1-30] |  | ≥ 200
CCCCC(NC(=O)c1[nH]c2c(c1C)C(=O)CC(C)(C)C2)C(=O)NCc1ccc(CN(C)C)cc1 (stereo not drawn) [Example 1-51] |  | < 50
Cc1c(C(=O)NC(CCC2CC2)C(=O)N2CCc3c(OCCCN(C)C)cccc32)[nH]c2c1C(=O)CC(C)(C)C2 (stereo not drawn) [Example 1-119] | ≥ 200 | 
CCCCC(NC(=O)c1[nH]c2c(c1C)C(=O)CC(C)(C)C2)C(=O)Nc1ccccc1OC (stereo not drawn) [Example 1-11] |  | ≥ 200
CCCCC(NC(=O)c1[nH]c2c(c1C)C(=O)CC(C)(C)C2)C(=O)NCc1ccccc1 (stereo not drawn) [Example 1-39] |  | ≥ 200
CCCCC(NC(=O)c1[nH]c2c(c1C)C(=O)CC(C)(C)C2)C(=O)Nc1ccc(N2CCC3(CNC3)C2)nc1 (stereo not drawn) [Example 27] | 50 to 200 | 
Cc1c(C(=O)NC(CCC2CC2)C(=O)N2CCc3cc(CN4CCCC4)ccc32)[nH]c2c1C(=O)CC(C)(C)C2 (stereo not drawn) [Example 1-127] | 50 to 200 | 
CCCCC(NC(=O)c1[nH]c2c(c1C)C(=O)CC(C)(C)C2)C(=O)N[C@@H]1CCCc2ccccc21 (stereo partly drawn) [Example 1-104] |  | 50 to 200
Cc1c(C(=O)NC(CCC2CC2)C(=O)N2CCc3ccc(CN4CCCCC4)cc32)[nH]c2c1C(=O)CC(C)(C)C2 (stereo not drawn) [Example 1-146] | ≥ 200 | 
COc1ccc(NC(=O)C(CCC2CC2)NC(=O)c2[nH]c3c(c2C)C(=O)CC(C)(C)C3)cc1 (stereo not drawn) [Example 1-63] |  | 50 to 200
CCCCC(NC(=O)c1[nH]c2c(c1C)C(=O)CC(C)(C)C2)C(=O)Nc1cccnc1C (stereo not drawn) [Example 1-107] |  | ≥ 200

The next lines start with the values.

IC50 [1] [nM] | IC50 [2] [nM] | Structure (SMILES)
< 50 |  | COc1ccc(NC(=O)C(CCC2CC2)NC(=O)c2ccc(Nc3ccncc3)cc2Cl)cn1 (stereo not drawn) [Example 6-77]
≥ 200 |  | Cc1c(C(=O)NC(CCC2CC2)c2nc3c(CN(C)C)cccc3n2C)[nH]c2c1C(=O)CC(C)(C)C2 (stereo not drawn) [Example 31-3]
50 to 200 |  | CCCCC(NC(=O)c1[nH]c2c(c1C)C(=O)CC(C)(C)C2)C(=O)Nc1cnccc1CC (stereo not drawn) [Example 6-22]
50 to 200 |  | Cc1cc(C)c(NC(=O)C(CCC2CC2)NC(=O)c2[nH]c3c(c2C)C(=O)CC(C)(C)C3)cn1 (stereo not drawn) [Example 6-14]
≥ 200 |  | Cc1c(C(=O)NC(C(=O)Nc2ccc(OC3CCN(C)CC3)nc2)c2ccccc2Cl)[nH]c2c1C(=O)CC(C)(C)C2 (stereo not drawn) [Example 6-28]
≥ 200 |  | CCCCC(NC(=O)c1[nH]c2c(c1C)C(=O)CC(C)(C)C2)C(=O)Nc1ccccc1CN(C)C (stereo not drawn) [Example 5-3]
≥ 200 |  | Cc1ccc2nc(C(CCC3CC3)NC(=O)c3[nH]c4c(c3C)C(=O)CC(C)(C)C4)n(C)c2c1 (stereo not drawn) [Example 30-4]
≥ 200 |  | COc1ccc(NC(=O)C(CCC2CC2)NC(=O)c2sc(-c3ccccc3)nc2C)cn1 (stereo not drawn) [Example 6-61]
≥ 200 |  | COc1ccc(NC(=O)C(CCC2CC2)NC(=O)c2ccc(NC3CCN(C)CC3)cc2)cn1 (stereo not drawn) [Example 6-59]
50 to 200 |  | Cc1c(C(=O)NC(CCC2CC2)C(=O)Nc2ccc(F)nc2)[nH]c2c1C(=O)CC(C)(C)C2 (stereo not drawn) [Example 6-12]
50 to 200 |  | CCc1cc(C#N)ncc1NC(=O)C(CCC1CC1)NC(=O)c1[nH]c2c(c1C)C(=O)CC(C)(C)C2 (stereo not drawn) [Example 15-2]
50 to 200 |  | CCCC[C@H](NC(=O)c1[nH]c2c(c1C)C(=O)CC(C)(C)C2)C(=O)N[C@H](C)c1ccccc1 [Example 2-3]
50 to 200 |  | Cc1c(C(=O)N[C@@H](CCC2CC2)C(=O)N2CCc3c(OCCN(C)C)cccc32)[nH]c2c1C(=O)CC(C)(C)C2 [Example 6-107]
≥ 200 |  | Cc1c(C(=O)NC(CCC2CC2)C(=O)Nc2cccnc2)[nH]c2c1C(=O)CC(C)(C)C2 (stereo not drawn) [Example 6-16]
≥ 200 |  | CCCCC(NC(=O)c1cc(S(N)(=O)=O)ccc1OC)C(=O)Nc1ccc(OC2CCN(C)CC2)nc1 (stereo not drawn) [Example 6-96]
≥ 200 |  | CCCCC(NC(=O)c1[nH]c2c(c1C)C(=O)CC(C)(C)C2)C(=O)NCc1ccc(CN2CCOCC2)cc1 (stereo not drawn) [Example 18-5]
